PubChem BioAssay (NCI)
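Where inhibition never reached the appropriate level, the endpoint shown equals the highest concentration tested. Otherwise, values were interpolated linearly from a five-concentration, 48-hour dose response in 96-well plates. At the GI50, growth is halved. At the TGI there is no net growth.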

What was measured:
Assay in all cases: NCI anticancer screen, dose series, 48 h
HL-60(TB) leukemia = tested on: HL-60(TB) leukemia
HOP-92 NSCLC = tested on: HOP-92 NSCLC
UO-31 renal = tested on: UO-31 renal
OVCAR-4 ovarian = tested on: OVCAR-4 ovarian
SR leukemia = tested on: SR leukemia
SK-MEL-28 melanoma = tested on: SK-MEL-28 melanoma
OVCAR-3 ovarian = tested on: OVCAR-3 ovarian
K-562 leukemia = tested on: K-562 leukemia
SK-OV-3 ovarian = tested on: SK-OV-3 ovarian
COLO 205 colon = tested on: COLO 205 colon
M14 melanoma = tested on: M14 melanoma
EKVX NSCLC = tested on: EKVX NSCLC
BT-549 breast = tested on: BT-549 breast
DU-145 prostate = tested on: DU-145 prostate
786-0 renal = tested on: 786-0 renal
SN12C renal = tested on: SN12C renal
OVCAR-8 ovarian = tested on: OVCAR-8 ovarian
A498 renal = tested on: A498 renal
SF-295 CNS = tested on: SF-295 CNS
KM12 colon = tested on: KM12 colon
MDA-MB-435 = tested on: MDA-MB-435
UACC-62 melanoma = tested on: UACC-62 melanoma
HCT-116 colon = tested on: HCT-116 colon
CAKI-1 renal = tested on: CAKI-1 renal
U251 CNS = tested on: U251 CNS
TK-10 renal = tested on: TK-10 renal
SK-MEL-2 melanoma = tested on: SK-MEL-2 melanoma
SNB-19 CNS = tested on: SNB-19 CNS
UACC-257 melanoma = tested on: UACC-257 melanoma

## CC12OC(CC(O)C1O)n1c3ccccc3c3c4c(c5c6ccccc6n2c5c31)C(=O)N(CCN1CCCC1)C4=O (configuration not stated)
HL-60(TB) leukemia
  GI50: 0.562 µM
  TGI: 8.7 µM
HOP-92 NSCLC
  GI50: 3.85 µM
  TGI: 10.3 µM
UO-31 renal
  GI50: 1.5 µM
  TGI: 9.95 µM
OVCAR-4 ovarian
  GI50: 1.88 µM
  TGI: 12.3 µM
SR leukemia
  GI50: 0.149 µM
  TGI: 6.08 µM
SK-MEL-28 melanoma
  GI50: 2.24 µM
  TGI: 9.7 µM
OVCAR-3 ovarian
  GI50: 1.77 µM
  TGI: 8.95 µM
K-562 leukemia
  GI50: 0.68 µM
  TGI: 19.4 µM
SK-OV-3 ovarian
  GI50: 1.57 µM
  TGI: 6.99 µM
COLO 205 colon
  GI50: 0.377 µM
  TGI: 6.16 µM
M14 melanoma
  GI50: 1.23 µM
  TGI: 7.64 µM
EKVX NSCLC
  GI50: 1.67 µM
  TGI: 9.64 µM
BT-549 breast
  GI50: 3.85 µM
  TGI: 11.5 µM
DU-145 prostate
  GI50: 1.06 µM
  TGI: 5.82 µM
786-0 renal
  GI50: 1.29 µM
  TGI: 6.36 µM
SN12C renal
  GI50: 0.577 µM
  TGI: 6.64 µM
OVCAR-8 ovarian
  GI50: 1.1 µM
  TGI: 9.12 µM
A498 renal
  GI50: 1.5 µM
  TGI: 7.5 µM
SF-295 CNS
  GI50: 0.291 µM
  TGI: 5.96 µM
KM12 colon
  GI50: 1.3 µM
  TGI: 8.68 µM
MDA-MB-435
  GI50: 1.7 µM
  TGI: 8.11 µM
UACC-62 melanoma
  GI50: 0.513 µM
  TGI: 2.58 µM
HCT-116 colon
  GI50: 0.321 µM
  TGI: 6.35 µM
CAKI-1 renal
  GI50: 1.41 µM
  TGI: 9.01 µM
U251 CNS
  GI50: 0.488 µM
  TGI: 6.51 µM
TK-10 renal
  GI50: 1.21 µM
  TGI: 10.4 µM
SK-MEL-2 melanoma
  GI50: 5.16 µM
  TGI: 12.9 µM
SNB-19 CNS
  GI50: 1.25 µM
  TGI: 9.29 µM
UACC-257 melanoma
  GI50: 3.54 µM
